Test results: ChEMBL document CHEMBL4622974, “Leveraging an Open Science Drug Discovery Model to Develop CNS-Penetrant ALK2 Inhibitors for the Treatment of Diffuse Intrinsic Pontine Glioma” (J Med Chem, 2020)
Active and inactive are the calls of the source. The calls are words filed in the database; no cut-off is given here.

Experiments:
[1] = molecular target: T1, Alpha-2A adrenergic receptor (Homo sapiens, UniProt P08913); test: Inhibition of recombinant human adrenergic alpha2A receptor incubated for 60 mins by scintillation counting method
Cytochrome P450 2C8 = Cytochrome P450 2C8 (Homo sapiens, UniProt P10632); test: Inhibition of CYP2C8 in human liver microsomes using paclitaxel as substrate incubated for 20 mins in presence of NADPH by LC/MS/MS analysis; type: ADME
[2] = molecular target: Bone morphogenetic protein receptor type-1B (Homo sapiens, UniProt O00238); test: Inhibition of human ALK6 using casein as substrate in presence of [gamma-33P]-ATP by radiometric hotspot assay
[3] = Toxicity in C57BL/6 mouse assessed as gross pathology at 25 mg/kg, po QD administered for 5 days measured after 24 hrs relative to control; type: organism-based; conditions: in vivo
[4] = molecular target: Alpha-1A adrenergic receptor (Rattus norvegicus, UniProt P43140); test: Inhibition of rat adrenergic alpha1A receptor at 10 uM relative to control
Cytochrome P450 2C19 = Cytochrome P450 2C19 (Homo sapiens, UniProt P33261); test: Inhibition of CYP2C19 in human liver microsomes using mephenytoin as substrate incubated for 20 mins in presence of NADPH by LC/MS/MS analysis; type: ADME
[5] = molecular target: Bone morphogenetic protein receptor type-1A (Homo sapiens, UniProt P36894); test: Inhibition of human ALK3 using casein as substrate in presence of [gamma-33P]-ATP by radiometric hotspot assay
[6] = Toxicity in C57BL/6 mouse assessed as gross pathology at 50 mg/kg, po QD administered for 5 days measured after 24 hrs relative to control; type: organism-based; conditions: in vivo
[7] = molecular target: T1, Alpha-2A adrenergic receptor; test: Inhibition of recombinant human adrenergic alpha2A receptor at 10 uM incubated for 60 mins by scintillation counting method relative to control
[8] = Mutagenicity in Salmonella typhimurium by mini Ames test; type: toxicity; conditions: salmonella enterica subsp. enterica serovar typhimurium
[9] = Toxicity in C57BL/6 mouse assessed as mouse death at 25 mg/kg, po BID administered for 5 days measured after 24 hrs; type: organism-based; conditions: in vivo
[10] = Toxicity in C57BL/6 mouse assessed as mouse death at 25 mg/kg, po QD administered for 5 days measured after 24 hrs; type: organism-based; conditions: in vivo
Cytochrome P450 2D6 = Cytochrome P450 2D6 (Homo sapiens, UniProt P10635); test: Inhibition of CYP2D6 in human liver microsomes using dextromethorphan as substrate incubated for 20 mins in presence of NADPH by LC/MS/MS analysis; type: ADME
Cytochrome P450 2B6 = Cytochrome P450 2B6 (Homo sapiens, UniProt P20813); test: Inhibition of CYP2B6 in human liver microsomes using bupropion as substrate incubated for 20 mins in presence of NADPH by LC/MS/MS analysis; type: ADME
[11] = Ratio of drug level in brain to plasma in CB17 SCID mouse at 50 mg/kg, po measured at 4 h; type: ADME, organism-based; conditions: read-out: BPR
TGF-beta receptor type-1 = molecular target: T2, TGF-beta receptor type-1 (Homo sapiens, UniProt P36897); test: Inhibition of human ALK5 using casein as substrate in presence of [gamma-33P]-ATP by radiometric hotspot assay; type: ADME
T2 sequence (P36897 whole entry): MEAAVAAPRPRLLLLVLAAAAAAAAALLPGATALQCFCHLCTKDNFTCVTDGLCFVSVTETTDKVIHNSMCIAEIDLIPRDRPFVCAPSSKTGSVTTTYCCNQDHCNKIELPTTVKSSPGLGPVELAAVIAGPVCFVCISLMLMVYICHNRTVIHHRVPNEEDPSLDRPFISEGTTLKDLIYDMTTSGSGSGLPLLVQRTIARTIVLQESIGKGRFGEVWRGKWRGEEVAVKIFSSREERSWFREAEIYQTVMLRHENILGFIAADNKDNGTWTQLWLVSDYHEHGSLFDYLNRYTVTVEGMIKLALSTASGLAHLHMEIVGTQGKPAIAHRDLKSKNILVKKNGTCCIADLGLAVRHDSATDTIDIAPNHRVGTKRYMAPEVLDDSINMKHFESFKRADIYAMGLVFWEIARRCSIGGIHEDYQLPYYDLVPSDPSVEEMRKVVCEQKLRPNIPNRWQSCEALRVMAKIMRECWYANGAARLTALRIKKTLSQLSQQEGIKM

[12] = Ratio of drug level in brain to plasma in CB17 SCID mouse at 10 mg/kg, po measured at 4 h; type: ADME, organism-based; conditions: brain and plasma, read-out: BPR
[13] = molecular target: Tyrosine-protein kinase Lyn (Homo sapiens) (UniProt P07948); test: Inhibition of LYN (unknown origin)
Tyrosine-protein kinase Lyn (Homo sapiens), sequence (P07948 2-512 limits assumed): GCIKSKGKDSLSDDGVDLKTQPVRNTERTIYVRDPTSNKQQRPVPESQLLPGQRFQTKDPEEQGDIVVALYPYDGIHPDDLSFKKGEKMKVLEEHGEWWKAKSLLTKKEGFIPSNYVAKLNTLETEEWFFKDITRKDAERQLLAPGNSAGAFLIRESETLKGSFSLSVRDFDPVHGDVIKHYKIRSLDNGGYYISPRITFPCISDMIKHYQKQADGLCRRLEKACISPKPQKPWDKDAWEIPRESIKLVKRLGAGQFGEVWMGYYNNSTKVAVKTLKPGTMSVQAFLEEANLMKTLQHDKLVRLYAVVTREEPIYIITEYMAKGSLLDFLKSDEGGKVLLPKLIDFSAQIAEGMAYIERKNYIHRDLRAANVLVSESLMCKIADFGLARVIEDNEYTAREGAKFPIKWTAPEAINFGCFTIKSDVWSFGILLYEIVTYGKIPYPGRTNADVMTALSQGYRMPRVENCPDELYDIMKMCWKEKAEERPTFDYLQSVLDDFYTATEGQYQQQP

T1 sequence (P08913 whole entry): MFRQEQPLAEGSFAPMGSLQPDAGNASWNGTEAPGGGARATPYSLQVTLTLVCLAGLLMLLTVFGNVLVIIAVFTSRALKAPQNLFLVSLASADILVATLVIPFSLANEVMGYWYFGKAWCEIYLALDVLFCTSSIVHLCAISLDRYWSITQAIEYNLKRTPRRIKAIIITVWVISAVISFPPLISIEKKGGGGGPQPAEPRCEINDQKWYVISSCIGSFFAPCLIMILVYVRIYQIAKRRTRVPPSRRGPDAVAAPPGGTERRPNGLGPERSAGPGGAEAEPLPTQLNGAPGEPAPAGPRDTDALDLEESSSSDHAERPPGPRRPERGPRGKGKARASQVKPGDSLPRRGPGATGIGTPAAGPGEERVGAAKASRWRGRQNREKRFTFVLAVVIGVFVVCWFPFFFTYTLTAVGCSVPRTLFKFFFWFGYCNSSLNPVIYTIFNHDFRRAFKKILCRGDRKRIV
Cytochrome P450 2C8, sequence (P10632 whole entry): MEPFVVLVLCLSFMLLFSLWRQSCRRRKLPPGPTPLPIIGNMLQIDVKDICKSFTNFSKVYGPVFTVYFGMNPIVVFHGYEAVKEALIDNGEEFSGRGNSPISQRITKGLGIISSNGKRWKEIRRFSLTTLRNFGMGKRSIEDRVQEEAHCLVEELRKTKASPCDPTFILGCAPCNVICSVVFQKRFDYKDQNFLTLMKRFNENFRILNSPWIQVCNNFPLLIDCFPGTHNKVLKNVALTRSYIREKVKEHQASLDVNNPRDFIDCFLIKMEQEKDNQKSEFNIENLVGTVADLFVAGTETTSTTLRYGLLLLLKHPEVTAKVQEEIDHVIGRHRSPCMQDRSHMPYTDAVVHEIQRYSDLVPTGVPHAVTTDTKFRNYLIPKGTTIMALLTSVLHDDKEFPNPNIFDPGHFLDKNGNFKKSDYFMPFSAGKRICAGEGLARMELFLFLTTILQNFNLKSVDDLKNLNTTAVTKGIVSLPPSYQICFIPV
Cytochrome P450 2B6, sequence (P20813 whole entry): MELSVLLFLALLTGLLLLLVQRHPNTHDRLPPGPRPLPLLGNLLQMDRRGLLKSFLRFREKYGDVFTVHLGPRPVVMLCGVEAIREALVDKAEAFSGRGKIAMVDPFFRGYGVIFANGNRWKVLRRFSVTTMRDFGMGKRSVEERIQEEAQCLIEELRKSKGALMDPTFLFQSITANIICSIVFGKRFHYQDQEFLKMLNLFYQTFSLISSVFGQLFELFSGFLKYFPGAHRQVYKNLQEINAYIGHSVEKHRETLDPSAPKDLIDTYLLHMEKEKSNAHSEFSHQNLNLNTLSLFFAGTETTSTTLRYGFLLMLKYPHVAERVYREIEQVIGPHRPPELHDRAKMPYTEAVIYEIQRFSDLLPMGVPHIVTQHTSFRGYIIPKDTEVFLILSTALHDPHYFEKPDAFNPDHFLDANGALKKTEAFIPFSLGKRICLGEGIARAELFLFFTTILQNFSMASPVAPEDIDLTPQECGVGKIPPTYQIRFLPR
Bone morphogenetic protein receptor type-1A, sequence (P36894 whole entry): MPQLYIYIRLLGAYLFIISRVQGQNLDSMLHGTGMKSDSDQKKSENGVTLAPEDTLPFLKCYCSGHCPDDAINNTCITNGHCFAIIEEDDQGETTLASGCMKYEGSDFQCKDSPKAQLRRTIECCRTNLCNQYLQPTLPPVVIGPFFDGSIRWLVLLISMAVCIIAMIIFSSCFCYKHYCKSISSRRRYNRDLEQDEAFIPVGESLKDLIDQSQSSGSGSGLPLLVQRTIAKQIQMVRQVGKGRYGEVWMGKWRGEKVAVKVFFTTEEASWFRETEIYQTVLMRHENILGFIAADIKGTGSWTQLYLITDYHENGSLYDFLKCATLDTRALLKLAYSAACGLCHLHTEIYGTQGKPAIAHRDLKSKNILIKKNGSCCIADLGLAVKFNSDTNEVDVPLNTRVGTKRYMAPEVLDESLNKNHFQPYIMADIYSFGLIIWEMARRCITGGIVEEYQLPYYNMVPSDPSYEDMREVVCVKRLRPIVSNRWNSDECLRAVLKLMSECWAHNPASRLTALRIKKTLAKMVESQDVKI
Bone morphogenetic protein receptor type-1B, sequence (O00238 whole entry): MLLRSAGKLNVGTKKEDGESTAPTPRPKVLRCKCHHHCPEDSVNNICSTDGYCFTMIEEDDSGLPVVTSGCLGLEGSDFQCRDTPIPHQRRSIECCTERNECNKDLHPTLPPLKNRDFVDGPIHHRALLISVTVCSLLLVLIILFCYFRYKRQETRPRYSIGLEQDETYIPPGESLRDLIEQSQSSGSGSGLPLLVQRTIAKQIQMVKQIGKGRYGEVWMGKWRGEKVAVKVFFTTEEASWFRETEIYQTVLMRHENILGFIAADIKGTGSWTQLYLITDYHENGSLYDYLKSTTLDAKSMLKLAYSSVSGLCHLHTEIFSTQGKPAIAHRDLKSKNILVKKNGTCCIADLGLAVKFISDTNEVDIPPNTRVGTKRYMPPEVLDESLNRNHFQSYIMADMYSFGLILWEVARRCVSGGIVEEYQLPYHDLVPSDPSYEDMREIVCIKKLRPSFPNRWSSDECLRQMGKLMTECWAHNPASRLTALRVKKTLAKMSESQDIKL
Alpha-1A adrenergic receptor, sequence (P43140 whole entry): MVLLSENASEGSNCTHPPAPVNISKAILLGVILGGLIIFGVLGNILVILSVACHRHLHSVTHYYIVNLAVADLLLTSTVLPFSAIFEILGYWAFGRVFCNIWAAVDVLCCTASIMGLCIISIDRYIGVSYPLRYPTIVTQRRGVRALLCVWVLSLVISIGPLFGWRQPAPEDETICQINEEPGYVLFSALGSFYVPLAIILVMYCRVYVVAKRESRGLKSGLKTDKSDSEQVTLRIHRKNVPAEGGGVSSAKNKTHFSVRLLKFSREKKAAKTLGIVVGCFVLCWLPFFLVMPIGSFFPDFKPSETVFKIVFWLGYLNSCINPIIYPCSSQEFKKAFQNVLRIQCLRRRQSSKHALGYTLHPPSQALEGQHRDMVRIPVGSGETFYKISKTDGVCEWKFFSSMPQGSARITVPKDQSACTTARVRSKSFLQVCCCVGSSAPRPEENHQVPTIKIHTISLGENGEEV
Cytochrome P450 2D6, sequence (P10635 whole entry): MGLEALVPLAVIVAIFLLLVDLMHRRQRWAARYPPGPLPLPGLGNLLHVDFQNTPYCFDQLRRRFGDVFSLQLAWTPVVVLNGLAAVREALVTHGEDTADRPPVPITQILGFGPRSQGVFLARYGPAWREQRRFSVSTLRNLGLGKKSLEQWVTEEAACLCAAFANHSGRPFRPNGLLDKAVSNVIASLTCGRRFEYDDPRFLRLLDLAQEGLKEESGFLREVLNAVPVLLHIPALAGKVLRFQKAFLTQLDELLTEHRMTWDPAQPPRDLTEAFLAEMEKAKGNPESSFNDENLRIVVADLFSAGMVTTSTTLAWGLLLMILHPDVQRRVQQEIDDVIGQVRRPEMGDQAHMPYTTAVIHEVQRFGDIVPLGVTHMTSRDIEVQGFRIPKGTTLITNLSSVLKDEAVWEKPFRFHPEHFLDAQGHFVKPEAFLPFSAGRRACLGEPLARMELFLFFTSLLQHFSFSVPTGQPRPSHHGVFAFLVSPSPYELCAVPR
Cytochrome P450 2C19, sequence (P33261 whole entry): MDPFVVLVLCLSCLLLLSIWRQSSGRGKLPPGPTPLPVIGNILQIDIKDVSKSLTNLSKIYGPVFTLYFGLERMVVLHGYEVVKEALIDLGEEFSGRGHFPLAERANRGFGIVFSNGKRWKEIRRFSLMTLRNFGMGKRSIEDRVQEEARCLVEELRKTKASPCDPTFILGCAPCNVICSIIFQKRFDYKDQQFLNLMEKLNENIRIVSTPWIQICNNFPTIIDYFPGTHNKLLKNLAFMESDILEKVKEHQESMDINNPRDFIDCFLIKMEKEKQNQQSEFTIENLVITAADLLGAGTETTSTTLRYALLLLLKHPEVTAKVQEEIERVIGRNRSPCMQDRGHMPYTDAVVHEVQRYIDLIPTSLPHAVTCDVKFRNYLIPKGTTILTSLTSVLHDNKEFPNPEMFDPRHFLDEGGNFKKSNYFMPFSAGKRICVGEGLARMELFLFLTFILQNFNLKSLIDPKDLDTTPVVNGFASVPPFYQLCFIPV

IC50 (TGF-beta receptor type-1) [µM]	Kp at 4 h [12]	inhibition [13]	Compound	IC50 [1] [µM]	IC50 (Cytochrome P450 2C8) [µM]	IC50 [2] [µM]	Activity [3]	inhibition at 10 µM [4] [%]	IC50 (Cytochrome P450 2C19) [µM]	IC50 [5] [µM]	Activity [6]	inhibition at 1 h, 10 µM [7] [%]	Activity [8]	Activity [9]	Activity [10]	IC50 (Cytochrome P450 2D6) [µM]	IC50 (Cytochrome P450 2B6) [µM]	Kp at 4 h [11]
			COc1cc(-c2cncc(-c3ccc(N4CCNCC4)cc3)c2C)cc(OC)c1OC	2.18	> 30	0.068	Non-Toxic	65	> 30	0.428	Non-Toxic	90	Non-Toxic	Non-Toxic	Non-Toxic	> 30	> 30	1.8
> 5	0.82	Active	COc1cc(-c2cncc(-c3ccc(C4CCN(C)CC4)cc3)c2C)cc(OC)c1OC															
